According to patent US10059701B2 (Merck Patent GmbH, priority 2015, dated 2018):

Tests used:
IRAK1 = biological target: T1, IRAK1 (Homo sapiens, UniProt P51617); assay: IRAK1 enzymatic assay (ADP-Glo luminescence); assay type: biochemical; details: purified human recombinant His-TEV-IRAK1 (194-712)
T1 construct: His-TEV-IRAK1 (194-712); His (N); TEV cleavage site (N)
Summary of the method: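 Recombinant human His-TEV-IRAK1 (194-712), 0.3 μg/ml, preincubated 15 min at RT with compounds (10 μM to 0.5 nM) in 50 mM Hepes pH 7.0, 10 mM MgCl2, 2 mM DTT, 0.1% BSA. ATP-started reaction run 2 hours at RT; ADP formed from ATP hydrolysis/autophosphorylation read by ADP-Glo luminescence.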

IRAK4 = biological target: T2, IRAK4 (Homo sapiens, UniProt Q9NWZ3); assay: IRAK4 enzymatic assay (ADP-Glo luminescence); assay type: biochemical; details: purified human recombinant His-TEV-IRAK4 (1-460), ATP 2 μM
T2 construct: His-TEV-IRAK4 (1-460); His (N); TEV cleavage site (N)
T2 sequence (Q9NWZ3 1-460): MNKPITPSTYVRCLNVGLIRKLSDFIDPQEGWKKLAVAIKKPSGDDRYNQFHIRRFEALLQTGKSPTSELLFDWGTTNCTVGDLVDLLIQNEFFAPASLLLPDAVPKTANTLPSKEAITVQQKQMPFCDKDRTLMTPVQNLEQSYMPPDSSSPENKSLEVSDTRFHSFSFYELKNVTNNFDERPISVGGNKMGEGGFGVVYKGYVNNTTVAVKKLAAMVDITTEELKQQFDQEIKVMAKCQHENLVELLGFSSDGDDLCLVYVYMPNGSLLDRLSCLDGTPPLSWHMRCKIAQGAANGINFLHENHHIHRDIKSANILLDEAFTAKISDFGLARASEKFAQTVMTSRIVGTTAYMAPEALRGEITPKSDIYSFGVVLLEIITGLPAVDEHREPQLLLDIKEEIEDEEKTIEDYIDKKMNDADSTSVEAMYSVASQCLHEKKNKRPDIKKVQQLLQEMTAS
Summary of the method: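 Recombinant His-TEV-IRAK4 (1-460) at 0.3 μg/ml preincubated 15 min at RT with compounds (10 μM to 0.5 nM) in Hepes pH 7.0 buffer with MgCl2/MnCl2. Reaction started with 2 μM ATP and 300 nM STK1-biotin peptide, run 2 h at RT. ADP formed read by ADP-Glo luminescence.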

T1 sequence (P51617 194-712): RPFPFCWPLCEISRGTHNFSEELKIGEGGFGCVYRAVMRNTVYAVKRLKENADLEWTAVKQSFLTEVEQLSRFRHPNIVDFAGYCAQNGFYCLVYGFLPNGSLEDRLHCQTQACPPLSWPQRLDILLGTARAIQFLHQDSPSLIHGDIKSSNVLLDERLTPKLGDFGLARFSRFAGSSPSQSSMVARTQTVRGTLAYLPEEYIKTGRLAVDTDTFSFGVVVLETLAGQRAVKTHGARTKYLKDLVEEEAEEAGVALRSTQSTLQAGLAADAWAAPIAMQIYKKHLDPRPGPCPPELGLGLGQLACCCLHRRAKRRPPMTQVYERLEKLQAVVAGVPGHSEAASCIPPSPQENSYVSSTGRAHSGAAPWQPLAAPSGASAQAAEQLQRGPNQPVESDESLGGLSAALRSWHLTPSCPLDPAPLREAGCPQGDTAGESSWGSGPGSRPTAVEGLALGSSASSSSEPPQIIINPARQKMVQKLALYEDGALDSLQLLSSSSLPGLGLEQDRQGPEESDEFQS

SMILES | IC50 (IRAK1) [nM] | IC50 (IRAK4) [nM]
O=C(/N=c1\[nH]c2cc(N3CCCOCC3=O)ccc2n1CCCO)c1cccc(C(F)F)c1 [Example 186, (E)-3-(difluoromethyl)-N-(1-(3-hydroxypropyl)-5-(3-oxo-1,4-oxazepan-4-yl)-1H-benzo[d]imidazol-2(3H)-ylidene)benzamide] | ≤ 100 | ≤ 100
O=C(/N=c1\[nH]c2cc(N3CCOCCC3=O)ccc2n1CCCO)c1cccc(C(F)F)c1 [Example 187, (E)-3-(difluoromethyl)-N-(1-(3-hydroxypropyl)-5-(5-oxo-1,4-oxazepan-4-yl)-1H-benzo[d]imidazol-2(3H)-ylidene)benzamide] | ≤ 100 | ≤ 100
CC1(C)C(=O)N(c2ccc3c(c2)[nH]/c(=N\C(=O)c2cccc(C(F)F)c2)n3CCCO)CCN1C1CC1 [Example 188, (E)-N-(5-(4-cyclopropyl-3,3-dimethyl-2-oxopiperazin-1-yl)-1-(3-hydroxypropyl)-1H-benzo[d]imidazol-2(3H)-ylidene)-3-(difluoromethyl)benzamide] | ≤ 100 | ≤ 100
O=C(/N=c1\[nH]c2cc(N3C(=O)COCC34CC4)ccc2n1CCCO)c1cccc(C(F)(F)F)c1 [Example 189, (E)-N-(1-(3-hydroxypropyl)-5-(5-oxo-7-oxa-4-azaspiro[2.5]octan-4-yl)-1H-benzo[d]imidazol-2(3H)-ylidene)-3-(trifluoromethyl)benzamide] | ≤ 100 | ≤ 100
O=C(/N=c1\[nH]c2cc(N3C(=O)COCC34CC4)ccc2n1CCCO)c1cccc(C(F)F)c1 [Example 190, (E)-3-(difluoromethyl)-N-(1-(3-hydroxypropyl)-5-(5-oxo-7-oxa-4-azaspiro[2.5]octan-4-yl)-1H-benzo[d]imidazol-2(3H)-ylidene)benzamide] | ≤ 100 | ≤ 100
O=C(/N=c1\[nH]c2cc(N3CCN(C4CC4)CCC3=O)ccc2n1CCCO)c1cccc(C(F)(F)F)c1 [Example 191, (E)-N-(5-(4-cyclopropyl-7-oxo-1,4-diazepan-1-yl)-1-(3-hydroxypropyl)-1H-benzo[d]imidazol-2(3H)-ylidene)-3-(trifluoromethyl)benzamide] | 100 to 1000 | ≤ 100
O=C(/N=c1\[nH]c2cc(N3CCCN(C4CC4)CC3=O)ccc2n1CCCO)c1cccc(C(F)(F)F)c1 [Example 192, (E)-N-(5-(4-cyclopropyl-2-oxo-1,4-diazepan-1-yl)-1-(3-hydroxypropyl)-1H-benzo[d]imidazol-2(3H)-ylidene)-3-(trifluoromethyl)benzamide] | 100 to 1000 | ≤ 100
O=C(/N=c1\[nH]c2cc(-n3ccccc3=O)ccc2n1CCCO)c1cccc(C(F)(F)F)c1 [Example 193, (E)-N-(1-(3-hydroxypropyl)-5-(2-oxopyridin-1(2H)-yl)-1H-benzo[d]imidazol-2(3H)-ylidene)-3-(trifluoromethyl)benzamide] | 100 to 1000 | ≤ 100
O=C(/N=c1\[nH]c2cc(-n3ccccc3=O)ccc2n1CCCO)c1cccc(C(F)F)c1 [Example 194, (E)-3-(difluoromethyl)-N-(1-(3-hydroxypropyl)-5-(2-oxopyridin-1(2H)-yl)-1H-benzo[d]imidazol-2(3H)-ylidene)benzamide] | 100 to 1000 | ≤ 100
CC1(C)C(=O)N(c2ccc3c(c2)[nH]/c(=N\C(=O)c2cccc(C(F)F)c2)n3CCCO)CCN1CCO [Example 195, (E)-3-(difluoromethyl)-N-(5-(4-(2-hydroxyethyl)-3,3-dimethyl-2-oxopiperazin-1-yl)-1-(3-hydroxypropyl)-1H-benzo[d]imidazol-2(3H)-ylidene)benzamide] | 100 to 1000 | ≤ 100
CC1(C)COC(=O)N1c1ccc2c(c1)[nH]/c(=N\C(=O)c1cccc(C(F)F)c1)n2CCCO [Example 196, (E)-3-(difluoromethyl)-N-(5-(4,4-dimethyl-2-oxooxazolidin-3-yl)-1-(3-hydroxypropyl)-1H-benzo[d]imidazol-2(3H)-ylidene)benzamide] | 100 to 1000 | ≤ 100
O=C(/N=c1\[nH]c2cc(N3C(=O)CN(C4CC4)CC34CC4)ccc2n1CCCO)c1cccc(C(F)(F)F)c1 [Example 197, (E)-N-(5-(7-cyclopropyl-5-oxo-4,7-diazaspiro[2.5]octan-4-yl)-1-(3-hydroxypropyl)-1H-benzo[d]imidazol-2(3H)-ylidene)-3-(trifluoromethyl)benzamide] | ≤ 100 | ≤ 100
O=C(/N=c1\[nH]c2cc(N3C(=O)CN(C4CC4)CC34CC4)ccc2n1CCCO)c1cccc(C(F)F)c1 [Example 198, (E)-N-(5-(7-cyclopropyl-5-oxo-4,7-diazaspiro[2.5]octan-4-yl)-1-(3-hydroxypropyl)-1H-benzo[d]imidazol-2(3H)-ylidene)-3-(difluoromethyl)benzamide] | ≤ 100 | ≤ 100
CC1(C)CN(c2ccc3c(c2)[nH]/c(=N\C(=O)c2cccc(C(F)(F)F)c2)n3CCCO)C(=O)O1 [Example 199, (E)-N-(5-(5,5-dimethyl-2-oxooxazolidin-3-yl)-1-(3-hydroxypropyl)-1H-benzo[d]imidazol-2(3H)-ylidene)-3-(trifluoromethyl)benzamide] | 100 to 1000 | ≤ 100
CC1(C)CN(c2ccc3c(c2)[nH]/c(=N\C(=O)c2cccc(C(F)F)c2)n3CCCO)C(=O)O1 [Example 200, (E)-3-(difluoromethyl)-N-(5-(5,5-dimethyl-2-oxooxazolidin-3-yl)-1-(3-hydroxypropyl)-1H-benzo[d]imidazol-2(3H)-ylidene)benzamide] | 100 to 1000 | ≤ 100
O=C(/N=c1\[nH]c2cc(-n3ncccc3=O)ccc2n1CCCO)c1cccc(C(F)(F)F)c1 [Example 201, (E)-N-(1-(3-hydroxypropyl)-5-(6-oxopyridazin-1(6H)-yl)-1H-benzo[d]imidazol-2(3H)-ylidene)-3-(trifluoromethyl)benzamide] | ≤ 100 | ≤ 100
[2H]C([2H])([2H])Oc1cc2c(cc1N1CCOCC1=O)[nH]/c(=N\C(=O)c1cccc(C(F)(F)F)c1)n2CCCO [Example 202, (E)-N-(1-(3-hydroxypropyl)-6-(trideuteromethoxy)-5-(3-oxomorpholino)-1H-benzo[d]imidazol-2(3H)-ylidene)-3-(trifluoromethyl)benzamide] | ≤ 100 | ≤ 100
[2H]C([2H])([2H])Oc1cc2c(cc1N1CCOCC1=O)[nH]/c(=N\C(=O)c1cccc(C(F)F)c1)n2CCCO [Example 203, (E)-3-(difluoromethyl)-N-(1-(3-hydroxypropyl)-6-(trideuteromethoxy)-5-(3-oxomorpholino)-1H-benzo[d]imidazol-2(3H)-ylidene)benzamide] | ≤ 100 | ≤ 100
[2H]C([2H])([2H])Oc1cc2c(cc1N1CCCOC1=O)[nH]/c(=N\C(=O)c1cccc(C(F)(F)F)c1)n2CCCO [Example 204, (E)-N-(1-(3-hydroxypropyl)-6-(trideuteromethoxy)-5-(2-oxo-1,3-oxazinan-3-yl)-1H-benzo[d]imidazol-2(3H)-ylidene)-3-(trifluoromethyl)benzamide] | ≤ 100 | ≤ 100
[2H]C([2H])([2H])Oc1cc2c(cc1N1CCCOC1=O)[nH]/c(=N\C(=O)c1cccc(C(F)F)c1)n2CCCO [Example 205, (E)-3-(difluoromethyl)-N-(1-(3-hydroxypropyl)-6-(trideuteromethoxy)-5-(2-oxo-1,3-oxazinan-3-yl)-1H-benzo[d]imidazol-2(3H)-ylidene)benzamide] | ≤ 100 | ≤ 100
COc1cc2c(cc1N1CCCOC1=O)[nH]/c(=N\C(=O)c1cccc(C(F)(F)F)c1)n2CCCO [Example 206, (E)-N-(1-(3-hydroxypropyl)-6-methoxy-5-(2-oxo-1,3-oxazinan-3-yl)-1H-benzo[d]imidazol-2(3H)-ylidene)-3-(trifluoromethyl)benzamide] | ≤ 100 | ≤ 100
COc1cc2c(cc1N1CCCOC1=O)[nH]/c(=N\C(=O)c1cccc(C(F)F)c1)n2CCCO [Example 207, (E)-3-(difluoromethyl)-N-(1-(3-hydroxypropyl)-6-methoxy-5-(2-oxo-1,3-oxazinan-3-yl)-1H-benzo[d]imidazol-2(3H)-ylidene)benzamide] | ≤ 100 | ≤ 100
O=C(/N=c1\[nH]c2cc(N3CCOCC3=O)c(C3CC3)cc2n1CCCO)c1cccc(C(F)(F)F)c1 [Example 208, (E)-N-(6-cyclopropyl-1-(3-hydroxypropyl)-5-(3-oxomorpholino)-1H-benzo[d]imidazol-2(3H)-ylidene)-3-(trifluoromethyl)benzamide] | ≤ 100 | ≤ 100
